Experimental findings from patent US20190085207A1, “POLISHING COMPOSITION FOR OBJECT TO BE POLISHED HAVING METAL-CONTAINING LAYER” (FUJIMI INCORPORATED, priority 2016, published 2019) are described below.

A short description of this series: physchem. An excerpt: In this specification, the acid dissociation constant (pKa) of the acid is an index of acidity, and a common logarithm is employed as a reciprocal of the dissociation constant (Ka) of acid. That is, the acid dissociation constant (pKa) of the acid is obtained by measuring the dissociation constant Ka=[H3O^+] [B^−]/[BH] under a dilute aqueous solution condition and using a formula: pKa=−log Ka Incidentally, in the above formula, BH represents an organic acid and B^− represents a conjugate base of an organic acid. The measurement method of pKa is as follows: a hydrogen ion concentration is measured using a pH meter and pKa can be calculated from the concentration of the substance and the hydrogen ion concentration. Incidentally, in the case of polybasic acid, the pKa is a value calculated for the first Ka (pKa1).

Turning to `O=C(O)CC(O)C(=O)O` (centres unmarked) [Malic acid], the pKa (in general, the negative logarithm of the acid dissociation constant) was 3.4.

Regarding `O=C(O)C(O)CO` (centres unmarked) [Glyceric acid], the pKa (dilute aqueous solution) came to 3.4.

For the setting “dilute aqueous solution”, `CCCCC(=O)O` [Valeric acid] returned a pKa of 4.6.

Molecule `CC(C)(O)C(=O)O` [2-Hydroxyisobutyric acid] registered a pKa (dilute aqueous solution) of 4.37.

For `CC(C)CC(O)C(=O)O` (centres unmarked) [Leucine acid], the pKa worked out at 3.9.
